Results on three compounds are retold here after patent US8642766B2, “Synthesis of (+) cortistatin A and related compounds” (priority 2008, dated 2014).

The structures appear in SMILES notation.

A word on the IC50: it is the midpoint of a concentration-inhibition curve.

In test [1] the test system is HUVECs. Description: Assay to determine activity against HUVECs (carried out by Pfizer, Inc.). The format is cell-based, human. The note with it: for IC50: synthetic material, tested by Pfizer, Inc. From the text:
[Aoki et al., J. Am. Chem. Soc. 2006, 128:3148-3149]

The test system of test [2] is human umbilical vein endothelial cells (HUVECs). The note with it: cited from earlier work.

As to `CN(C)[C@H]1C[C@@]23CC[C@@]4(O2)C(=CC[C@]2(C)C(c5ccc6ccncc6c5)=CC[C@H]24)C=C3[C@@H](O)[C@@H]1O` [Δ^16-cortistatin A], the IC50 in test [1] (Homo sapiens, HUVEC) is 3.88 nM. For the same compound, the “biological activity compared with (+)cortistatin A” value in test [1] (statement in words, refers to the HUVEC results discussed below it) is “substantially the same as that of (+)cortistatin A”.

Take `CN(C)[C@H]1C[C@@]23CC[C@@]4(O2)C(=CC[C@]2(C)[C@@H](c5ccc6ccncc6c5)CC[C@H]24)C=C3[C@@H](O)[C@@H]1O` [cortistatin A, (+)-cortistatin A]: the half-maximal inhibitory concentration (IC50) was 2.43 nM in test [1] (Homo sapiens, HUVEC) and 1.8 nM in test [2] (natural cortistatin A tested by Kobayashi group, Aoki et al., J. Am. Chem. Soc. 2006, read-out: IC50 against HUVECs, natural cortistatin A). In addition, the “IC50 (testing cells)/IC50 (HUVECs)” value in test [2] (selectivity versus healthy or cancerous cell lines, Aoki et al. 2006) is recorded as no less than 3300.

For `CN(C)[C@H]1C[C@@]23CC[C@@]4(O2)C(=CC[C@]2(C)[C@@H](c5ccc6ccncc6c5)CC[C@H]24)C=C3[C@@H](O)[C@@H]1O` [17-epi-cortistatin A], the IC50 in test [1] was greater than 1000 nM.
